According to BindingDB's records for patent US20250032625 (Merck Patent, 2025):

Molecular target: T1, Transcriptional enhancer factor TEF-1 [209-426] (UniProt P28347)
T1 construct: 209-426
Assay: Surface Plasmon Resonance (SPR) Assay
Protocol: The kinetic and affinity parameters of protein-exemplary compound interactions were evaluated by SPR. hsTEAD1 (209-426) was immobilized onto a CM7 (Series S) sensor chip via the standard amine coupling procedure, at 15° C. Prior to immobilization, the carboxymethylated surface of the chip was activated with 400 mM 1-ethyl-3-(3-dimethylaminopropyl)-carbodiimide and 100 mM N-hydroxysuccinimide for 10 min. hsTEAD1 (209-426) was diluted to 11 μg/mL in 10 mM Bis-Tris at pH 6.5 and immobilized on the activated surface chip for 8 and 10 min, in order to reach 6000 to 9000 response units (RU). The remaining activated carboxymethylated groups were blocked with a 7 min injection of 1 M ethanolamine pH 8.5 after which the surface chip was washed with 0.5% (w/v) sodium dodecyl sulphate and 50 mM glycine. HBS-N, which consists of 10 mM HEPES pH 7.4 and 150 mM NaCl, was used as the background buffer during immobilization. Exemplary compounds were prediluted in DMSO, diluted 1:50 in running buffer (20 mM Tris pH 7.4, 150 mM NaCl, 1 mM DTT, 5 mM MgCl2, 0.1 mM EGTA, 0.05% CHAPS) and injected at ten different concentrations using two-fold dilution series, from 100 μM to 0.2 μM. A DMSO solvent correction (1%-3%) was performed to account for variations in bulk signal and to achieve high-quality data. […]

T1 sequence (P28347 209-426): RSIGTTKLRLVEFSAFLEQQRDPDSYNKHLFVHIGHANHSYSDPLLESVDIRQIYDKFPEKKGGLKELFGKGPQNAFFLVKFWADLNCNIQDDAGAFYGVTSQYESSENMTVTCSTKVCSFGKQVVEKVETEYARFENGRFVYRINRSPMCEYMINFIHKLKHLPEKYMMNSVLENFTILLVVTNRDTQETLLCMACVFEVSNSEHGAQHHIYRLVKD

Compound: Cn1cc2c3cc(C(=O)NCCOCCOCCOCCOCCOc4cccc5c4C(=O)N(C4CCC(=O)NC4=O)C5=O)ccc3n(-c3ccc(C(F)(F)F)cc3)c2n1 (stereo unspecified) [US20250032625, Compound 16]
- Kd: 3.01 µM
